Patent US8124647B2 (priority 2002, dated 2012)

Tests used:
human androgen receptor [1] = target: T1, human androgen receptor (Homo sapiens, UniProt P10275); experiment: cell-based; conditions: in the presence of 1 nM DHT
T1 construct: expressed in transfected cells; host or cells: CHO cells, cell line CHO-AR-pMMTV-LUC 1G12-A5-CA
T1 sequence (P10275 1-920): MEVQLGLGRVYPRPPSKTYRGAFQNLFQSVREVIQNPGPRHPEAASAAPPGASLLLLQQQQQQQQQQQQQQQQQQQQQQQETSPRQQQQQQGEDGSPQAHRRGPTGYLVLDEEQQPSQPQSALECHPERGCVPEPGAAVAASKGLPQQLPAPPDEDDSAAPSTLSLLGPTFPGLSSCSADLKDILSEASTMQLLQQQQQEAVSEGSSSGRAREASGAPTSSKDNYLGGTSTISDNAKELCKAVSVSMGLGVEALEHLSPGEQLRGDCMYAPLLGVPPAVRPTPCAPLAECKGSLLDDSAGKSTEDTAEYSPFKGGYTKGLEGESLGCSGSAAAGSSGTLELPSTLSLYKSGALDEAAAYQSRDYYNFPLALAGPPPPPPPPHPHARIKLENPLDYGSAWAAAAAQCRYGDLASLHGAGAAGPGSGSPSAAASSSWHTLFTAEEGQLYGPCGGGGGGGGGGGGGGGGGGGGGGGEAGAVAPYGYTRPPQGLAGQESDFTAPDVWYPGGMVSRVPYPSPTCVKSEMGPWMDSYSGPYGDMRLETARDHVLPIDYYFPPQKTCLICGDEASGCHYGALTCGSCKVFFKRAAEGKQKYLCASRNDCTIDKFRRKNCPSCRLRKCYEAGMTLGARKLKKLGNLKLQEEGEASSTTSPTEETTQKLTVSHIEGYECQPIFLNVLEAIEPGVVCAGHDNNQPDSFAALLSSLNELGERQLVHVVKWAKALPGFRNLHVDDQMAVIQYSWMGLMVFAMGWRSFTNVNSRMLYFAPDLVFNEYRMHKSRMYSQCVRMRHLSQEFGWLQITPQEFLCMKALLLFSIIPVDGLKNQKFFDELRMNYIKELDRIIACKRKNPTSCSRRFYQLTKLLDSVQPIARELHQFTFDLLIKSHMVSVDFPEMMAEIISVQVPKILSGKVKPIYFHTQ
Method: (§1) Compounds were tested for their Androgen Receptor activity in a transactivation assay and in a binding assay.
(§2) The (anti-)androgenic activity of test compounds (EC50 and intrinsic activity) was determined in an in vitro bioassay of Chinese hamster ovary (CHO) cells stably transfected with the human androgen receptor expression plasmid and a reporter plasmid in which the MMTV-promoter is linked to the luciferase reporter gene. The cell-line CHO-AR-pMMTV-LUC 1G12-A5-CA is described in Schoonen et al. (2000), Journal of Steroid Biochemistry and Molecular Biology 74(4):213-222. The antiandrogenic activity of a test compound was determined by the inhibition of the transactivation via the androgen receptor of the enzyme luciferase in the presence of 1 nM DHT (5α-dihydrotestosterone, 17β-hydroxy-5α-androstan-3-one). Intrinsic activity of antiandrogenic activity was determined in the presence of the reference antiandrogen 2-Hydroxy-2-methyl-N-(4-nitro-3-trifluoromethyl-phenyl)-propionamide(Hydroxyflutamide), and set at 100%. For androgenic activity, maximal intrinsic activity in the presence of 100 nM DHT was set at 100%.

human androgen receptor [2] = target: T1, human androgen receptor; experiment: androgenic activity (EC50 and intrinsic activity), transactivation bioassay in CHO-AR-pMMTV-LUC cells (Table 4); type: cell-based
Method: as §1, §2

[3] = antiandrogenic activity, read-out: ant EC50
[4] = androgenic activity, read-out: ago EC50

Structure (SMILES) | EC50 (human androgen receptor [1]; [3]) [nM] | EC50 (human androgen receptor [2]; [4]) [nM] | EC50 (human androgen receptor [1]; ant EC50, antiandrogenic activity) [nM] | EC50 (human androgen receptor [2]; ago EC50, androgenic activity) [nM]
COc1ccc2c(Sc3ccccc3C#N)cn(Cc3cc(F)cc(F)c3)c2c1 [Compound 20, 2-[1-(3,5-Difluoro-benzyl)-6-methoxy-1H-indol-3-ylsulfanyl]-benzonitrile] | > 10000 | 5 to 100 |  | 
O=[N+]([O-])c1ccccc1Sc1cn(Cc2cc(F)cc(F)c2)c2cc(Br)ccc12 [Compound 22] | > 10000 | 5 to 100 |  | 
O=[N+]([O-])c1ccccc1Sc1cn(Cc2cc(F)cc(F)c2)c2cc(C(F)(F)F)ccc12 [Compound 23] | > 10000 | < 5 |  | 
O=[N+]([O-])c1ccccc1Sc1cn(Cc2cc(F)cc(F)c2)c2cc(CO)ccc12 [Compound 24] | > 10000 | 5 to 100 |  | 
O=[N+]([O-])c1ccccc1Sc1cn(Cc2cc(F)cc(F)c2)c2cc(Cl)ccc12 [Compound 25] | > 10000 | < 5 |  | 
N#Cc1ccc2c(Sc3ccccc3[N+](=O)[O-])cn(Cc3cc(F)cc(F)c3)c2c1 [Compound 26, 1-(3,5-Difluoro-benzyl)-3-(2-nitro-phenylsulfanyl)-1H-indole-6-carbonitrile] | > 10000 | < 5 |  | 
O=C(c1ccc2c(Sc3ccccc3[N+](=O)[O-])cn(Cc3cc(F)cc(F)c3)c2c1)N1CCCC1 [Compound 27] | > 10000 | 5 to 100 |  | 
O=C(c1ccc2c(Sc3ccccc3[N+](=O)[O-])cn(Cc3cc(F)cc(F)c3)c2c1)N1CCOCC1 [Compound 28] | > 10000 | 5 to 100 |  | 
CN1CCN(C(=O)c2ccc3c(Sc4ccccc4[N+](=O)[O-])cn(Cc4cc(F)cc(F)c4)c3c2)CC1 [Compound 29] | > 10000 | 5 to 100 |  | 
O=C(O)c1ccc2c(Sc3ccccc3[N+](=O)[O-])cn(Cc3cc(F)cc(F)c3)c2c1 [Compound 30, 1-(3,5-Difluoro-benzyl)-3-(2-nitro-phenylsulfanyl)-1H-indole-6-carboxylic acid] | > 10000 | < 1000 |  | 
COC(=O)c1ccc2c(Sc3ccccc3[N+](=O)[O-])cn(Cc3cc(F)cc(F)c3)c2c1 [Compound 31, 1-(3,5-Difluoro-benzyl)-3-(2-nitro-phenylsulfanyl)-1H-indole-6-carboxylic acid methyl ester] | > 10000 | < 5 |  | 
CCN(CC)C(=O)c1ccc2c(Sc3ccccc3[N+](=O)[O-])cn(Cc3cc(F)cc(F)c3)c2c1 [Compound 32] | < 1000 | 5 to 100 |  | 
NC(=O)c1ccc2c(Sc3ccccc3[N+](=O)[O-])cn(Cc3cc(F)cc(F)c3)c2c1 [Compound 33, 1-(3,5-Difluoro-benzyl)-3(2-nitro-phenylsulfanyl)-1H-indole-6-carboxylic acid amide] | > 10000 | < 5 |  | 
O=C(NCc1ccco1)c1ccc2c(Sc3ccccc3[N+](=O)[O-])cn(Cc3cc(F)cc(F)c3)c2c1 [Compound 34] | > 10000 | 5 to 100 |  | 
O=C(NCc1cccnc1)c1ccc2c(Sc3ccccc3[N+](=O)[O-])cn(Cc3cc(F)cc(F)c3)c2c1 [Compound 35] | > 10000 | 5 to 100 |  | 
CN(C)CCNC(=O)c1ccc2c(Sc3ccccc3[N+](=O)[O-])cn(Cc3cc(F)cc(F)c3)c2c1 [Compound 36] | > 10000 | 5 to 100 |  | 
O=C(NCCO)c1ccc2c(Sc3ccccc3[N+](=O)[O-])cn(Cc3cc(F)cc(F)c3)c2c1 [Compound 37] | > 10000 | < 5 |  | 
COCCNC(=O)c1ccc2c(Sc3ccccc3[N+](=O)[O-])cn(Cc3cc(F)cc(F)c3)c2c1 [Compound 38] | > 10000 | < 5 |  | 
COC(=O)CNC(=O)c1ccc2c(Sc3ccccc3[N+](=O)[O-])cn(Cc3cc(F)cc(F)c3)c2c1 [Compound 39] | > 10000 | 5 to 100 |  | 
CN(C)C(=O)CNC(=O)c1ccc2c(Sc3ccccc3[N+](=O)[O-])cn(Cc3cc(F)cc(F)c3)c2c1 [Compound 40] | > 10000 | 5 to 100 |  | 

Structure (SMILES) | EC50 (human androgen receptor [1]; [3]) [nM] | EC50 (human androgen receptor [2]; [4]) [nM] | EC50 (human androgen receptor [1]; ant EC50, antiandrogenic activity) [nM] | EC50 (human androgen receptor [2]; ago EC50, androgenic activity) [nM]
O=C(NCC1CC1)c1ccc2c(Sc3ccccc3[N+](=O)[O-])cn(Cc3cc(F)cc(F)c3)c2c1 [Compound 41] | > 10000 | < 5 |  | 
CC(C)CNC(=O)c1ccc2c(Sc3ccccc3[N+](=O)[O-])cn(Cc3cc(F)cc(F)c3)c2c1 [Compound 42] | > 10000 | 5 to 100 |  | 
O=C(NCc1ccccc1)c1ccc2c(Sc3ccccc3[N+](=O)[O-])cn(Cc3cc(F)cc(F)c3)c2c1 [Compound 43] | < 1000 | 5 to 100 |  | 
O=C(NC1CC1)c1ccc2c(Sc3ccccc3[N+](=O)[O-])cn(Cc3cc(F)cc(F)c3)c2c1 [Compound 44] | > 10000 | < 5 |  | 
CCNC(=O)c1ccc2c(Sc3ccccc3[N+](=O)[O-])cn(Cc3cc(F)cc(F)c3)c2c1 [Compound 45] | > 10000 | < 5 |  | 
CC(C)NC(=O)c1ccc2c(Sc3ccccc3[N+](=O)[O-])cn(Cc3cc(F)cc(F)c3)c2c1 [Compound 46] | 5 to 100 | 5 to 100 |  | 
CNC(=O)c1ccc2c(Sc3ccccc3[N+](=O)[O-])cn(Cc3cc(F)cc(F)c3)c2c1 [Compound 47, 1-(3,5-Difluoro-benzyl)-3-(2-nitro-phenylsulfanyl)-1H-indole-6-carboxylic acid methylamide] | > 10000 | < 5 |  | 
CCCNC(=O)c1ccc2c(Sc3ccccc3[N+](=O)[O-])cn(Cc3cc(F)cc(F)c3)c2c1 [Compound 48] | < 1000 | 5 to 100 |  | 
CN(C)C(=O)c1ccc2c(Sc3ccccc3[N+](=O)[O-])cn(Cc3cc(F)cc(F)c3)c2c1 [Compound 49] | > 10000 | < 5 |  | 
O=[N+]([O-])c1ccccc1Sc1cn(Cc2cc(F)cc(F)c2)c2cc(F)ccc12 [Compound 50] | > 10000 | 5 to 100 |  | 
O=[N+]([O-])c1ccccc1Sc1cn(Cc2cc(F)cc(F)c2)c2cccc(F)c12 [Compound 51] | > 10000 | < 5 |  | 
O=[N+]([O-])c1ccccc1Sc1cn(Cc2cc(F)cc(F)c2)c2ccccc12 [Compound 52] | > 10000 | 5 to 100 |  | 
O=[N+]([O-])c1ccccc1Sc1cn(Cc2cc(F)cc(F)c2)c2ccc(F)cc12 [Compound 53] | > 10000 | 5 to 100 |  | 
O=[N+]([O-])c1ccccc1Sc1cn(Cc2cc(F)cc(F)c2)c2cccc(Cl)c12 [Compound 54] | > 10000 | 5 to 100 |  | 
Cc1cccc2c1c(Sc1ccccc1[N+](=O)[O-])cn2Cc1cc(F)cc(F)c1 [Compound 55] | > 10000 | 5 to 100 |  | 
Nc1ccc2c(Sc3ccccc3[N+](=O)[O-])cn(Cc3cc(F)cc(F)c3)c2c1 [Compound 57, 1-(3,5-Difluoro-benzyl)-3-(2-nitro-phenylsulfanyl)-1H-indol-6-ylamine] | > 10000 | < 1000 |  | 
CC(=O)Nc1ccc2c(Sc3ccccc3[N+](=O)[O-])cn(Cc3cc(F)cc(F)c3)c2c1 [Compound 58, N-[1-(3,5-Difluoro-benzyl)-3-(2-nitro-phenylsulfanyl)-1H-indol-6-yl]-acetamide] | > 10000 | < 5 |  | 
O=C(Nc1ccc2c(Sc3ccccc3[N+](=O)[O-])cn(Cc3cc(F)cc(F)c3)c2c1)C(F)(F)F [Compound 59, N-[1-(3,5-Difluoro-benzyl)-3-(2-nitro-phenylsulfanyl)-1H-indol-6-yl]-2,2,2-trifluoro-acetamide] | > 10000 | < 5 |  | 
O=[N+]([O-])c1ccc2c(Sc3ccccc3[N+](=O)[O-])cn(Cc3cc(F)cc(F)c3)c2c1 [Compound 60] |  |  | > 10000 | < 5
COc1ccc2c(S(=O)(=O)c3ccccc3[N+](=O)[O-])cn(Cc3cc(F)cc(F)c3)c2c1 [Compound 62, 1-(3,5-Difluoro-benzyl)-6-methoxy-3-(2-nitro-benzenesulfonyl)-1H-indole] | > 10000 | < 5 |  | 
